Structures are written as SMILES.

For the experiment, the system named is GST-Bcl-2. The experiment in a line: TR-FRET binding assay, Bcl-2. The settings on record: TR-FRET Ki values. In a few lines:
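Ki values come from Wang's competitive-binding equation applied to TR-FRET signal (excitation 340/35 nm; emission 520/525 nm F-Bak peptide, 495/510 nm Tb antibody). Protein, probe and antibody incubated with compound 3 h at room temperature; dilution series began at 50 μM as 2× stock in 10% DMSO.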
In the case of `CN(C)CC(=O)N1CCO[C@H](CNc2ccc(S(=O)(=O)NC(=O)c3ccc(N4CCN(CC5=C(c6ccc(Cl)cc6)CC(C)(C)CC5)CC4)cc3Oc3cccc4[nH]cnc34)cc2[N+](=O)[O-])C1` [EXAMPLE 437, 2-(1H-benzimidazol-4-yloxy)-4-(4-{[2-(4-chlorophenyl)-4,4-dimethylcyclohex-1-en-1-yl]methyl}piperazin-1-yl)-N-{[4-({[(2R)-4-(N,N-dimethylglycyl)morpholin-2-yl]methyl}amino)-3-nitrophenyl]sulfonyl}benzamide], the “Binding selectivity ratio (Bcl-XL Ki/Bcl-2 Ki)” value (from here on “Binding selectivity ratio”) was found to be 51.4.
With `CN(C)CC(=O)N1CCO[C@@H](COc2ncc(S(=O)(=O)NC(=O)c3ccc(N4CCN(CC5=C(c6ccc(Cl)cc6)CC(C)(C)CC5)CC4)cc3Oc3cccc4[nH]ncc34)cc2Cl)C1` [compound 426, N-[(5-chloro-6-{[(2R)-4-(N,N-dimethylglycyl)morpholin-2-yl]methoxy}pyridin-3-yl)sulfonyl]-4-(4-{[2-(4-chlorophenyl)-4,4-dimethylcyclohex-1-en-1-yl]methyl}piperazin-1-yl)-2-(1H-indazol-4-yloxy)benzamide], the “Binding selectivity ratio” value is 604.2.
Turning to `CC1(C)CCC(CN2CCN(c3ccc(C(=O)NS(=O)(=O)c4ccc(NCCN5CCOCC5)c(S(=O)(=O)C(F)(F)F)c4)c(Oc4ccc5[nH]ccc5c4)c3)CC2)=C(c2ccc(Cl)cc2)C1` [EXAMPLE 351, 4-(4-{[2-(4-chlorophenyl)-4,4-dimethylcyclohex-1-en-1-yl]methyl}piperazin-1-yl)-2-(1H-indol-5-yloxy)-N-({4-[(2-morpholin-4-ylethyl)amino]-3-[(trifluoromethyl)sulfonyl]phenyl}sulfonyl)benzamide], the “Binding selectivity ratio” value is listed as above 418.7.
For `CC1(C)CCC(CN2CCN(c3ccc(C(=O)NS(=O)(=O)c4ccc(NN5CCOCC5)c([N+](=O)[O-])c4)c(Oc4cccc5[nH]ccc45)c3)CC2)=C(c2ccc(Cl)cc2)C1` [EXAMPLE 262, 4-(4-{[2-(4-chlorophenyl)-4,4-dimethylcyclohex-1-en-1-yl]methyl}piperazin-1-yl)-2-(1H-indol-4-yloxy)-N-{[4-(morpholin-4-ylamino)-3-nitrophenyl]sulfonyl}benzamide] the value was 219.9.
The result for `CN(C)CCCc1cccc(-c2ccc(Cl)cc2)c1CN1CCN(c2ccc(C(=O)NS(=O)(=O)c3ccc(NCC4CCOCC4)c([N+](=O)[O-])c3)c(Oc3cccc4[nH]ccc34)c2)CC1` [EXAMPLE 196, 4-[4-({4′-chloro-3-[3-(dimethylamino)propyl]-1,1′-biphenyl-2-yl}methyl)piperazin-1-yl]-2-(1H-indol-4-yloxy)-N-({3-nitro-4-[(tetrahydro-2H-pyran-4-ylmethyl)amino]phenyl}sulfonyl)benzamide] reads above 20552.4; that for `CC1(C)CCC(CN2CCN(c3ccc(C(=O)NS(=O)(=O)c4ccc(N[C@@H]5CCN(CC(F)F)C5)c([N+](=O)[O-])c4)c(Oc4cccc5[nH]cnc45)c3)CC2)=C(c2ccc(Cl)cc2)C1` [EXAMPLE 407, 2-(1H-benzimidazol-4-yloxy)-4-(4-{[2-(4-chlorophenyl)-4,4-dimethylcyclohex-1-en-1-yl]methyl}piperazin-1-yl)-N-[(4-{[(3R)-1-(2,2-difluoroethyl)pyrrolidin-3-yl]amino}-3-nitrophenyl)sulfonyl]benzamide], 4931; that for `O=C(NS(=O)(=O)c1ccc(NCC2CCOCC2)c([N+](=O)[O-])c1)c1ccc(N2CCN(Cc3cc(N4CCOCC4)ccc3-c3ccc(Cl)cc3)CC2)cc1Oc1cccc2[nH]ccc12` [EXAMPLE 198, 4-{4-[(4′-chloro-4-morpholin-4-yl-1,1′-biphenyl-2-yl)methyl]piperazin-1-yl}-2-(1H-indol-4-yloxy)-N-({3-nitro-4-[(tetrahydro-2H-pyran-4-ylmethyl)amino]phenyl}sulfonyl)benzamide], above 166.4.
For `O=C(NS(=O)(=O)c1ccc(NCC2CCOCC2)c([N+](=O)[O-])c1)c1ccc(N2CCN(Cc3ccc(C(F)(F)F)cc3-c3ccc(Cl)cc3)CC2)cc1Oc1ccc2[nH]ccc2c1` [EXAMPLE 339, 4-(4-{[4′-chloro-5-(trifluoromethyl)-1,1′-biphenyl-2-yl]methyl}piperazin-1-yl)-2-(1H-indol-5-yloxy)-N-({3-nitro-4-[(tetrahydro-2H-pyran-4-ylmethyl)amino]phenyl}sulfonyl)benzamide] the value was above 46.7.
As to `CC1(C)CCC(CN2CCN(c3ccc(C(=O)NS(=O)(=O)c4ccc(NCC5CN(C6CC6)CCO5)c([N+](=O)[O-])c4)c(Oc4cccc5[nH]cnc45)c3)CC2)=C(c2ccc(Cl)cc2)C1` (stereo not shown) [EXAMPLE 432, 2-(1H-benzimidazol-4-yloxy)-4-(4-{[2-(4-chlorophenyl)-4,4-dimethylcyclohex-1-en-1-yl]methyl}piperazin-1-yl)-N-[(4-{[(4-cyclopropylmorpholin-2-yl)methyl]amino}-3-nitrophenyl)sulfonyl]benzamide], the “Binding selectivity ratio” value came to 408.8.
With `CC1(C)CCC(CN2CCN(c3ccc(C(=O)NS(=O)(=O)c4cnc(OCCN5CCOCC5)c(C#N)c4)c(Oc4cccc5[nH]ccc45)c3)CC2)=C(c2ccc(Cl)cc2)C1` [EXAMPLE 392, 4-(4-{[2-(4-chlorophenyl)-4,4-dimethylcyclohex-1-en-1-yl]methyl}piperazin-1-yl)-N-{[5-cyano-6-(2-morpholin-4-ylethoxy)pyridin-3-yl]sulfonyl}-2-(1H-indol-4-yloxy)benzamide], the “Binding selectivity ratio” value is 320.2.
For `CC1(C)CCC(CN2CCN(c3ccc(C(=O)NS(=O)(=O)c4ccc(NCC5CCN(C(=O)OCc6ccccc6)CC5)c([N+](=O)[O-])c4)c(Oc4ccc5[nH]ccc5c4)c3)CC2)=C(c2ccc(Cl)cc2)C1` [EXAMPLE 356, benzyl 4-({[4-({[4-(4-{[2-(4-chlorophenyl)-4,4-dimethylcyclohex-1-en-1-yl]methyl}piperazin-1-yl)-2-(1H-indol-5-yloxy)benzoyl]amino}sulfonyl)-2-nitrophenyl]amino}methyl)piperidine-1-carboxylate] the value was above 131.6.
With `CN(C)CCCOc1ccc(-c2ccc(Cl)cc2)c(CN2CCN(c3ccc(C(=O)NS(=O)(=O)c4ccc(NCC5CCOCC5)c(S(=O)(=O)C(F)(F)F)c4)c(Oc4ccccc4)c3)CC2)c1` [Example 119, 4-[4-({4′-chloro-4-[3-(dimethylamino)propoxy]-1,1′-biphenyl-2-yl}methyl)piperazin-1-yl]-2-phenoxy-N-({4-[(tetrahydro-2H-pyran-4-ylmethyl)amino]-3-[(trifluoromethyl)sulfonyl]phenyl}sulfonyl)benzamide], the “Binding selectivity ratio” value came out at 370.2.
The result for `CC1(C)CCC(CN2CCN(c3ccc(C(=O)NS(=O)(=O)c4ccc(NCC5CN(C6CC6)CCO5)c([N+](=O)[O-])c4)c(Oc4cccc5[nH]ncc45)c3)CC2)=C(c2ccc(Cl)cc2)C1` (stereo not shown) [EXAMPLE 411, 4-(4-{[2-(4-chlorophenyl)-4,4-dimethylcyclohex-1-en-1-yl]methyl}piperazin-1-yl)-N-[(4-{[(4-cyclopropylmorpholin-2-yl)methyl]amino}-3-nitrophenyl)sulfonyl]-2-(1H-indazol-4-yloxy)benzamide] reads 2352; that for `CC1(C)CCC(CN2CCN(c3ccc(C(=O)NS(=O)(=O)c4ccc(NC[C@H]5CCCO5)c([N+](=O)[O-])c4)c(Oc4ccc5[nH]ccc5c4)c3)CC2)=C(c2ccc(Cl)cc2)C1` [EXAMPLE 370, 4-(4-{[2-(4-chlorophenyl)-4,4-dimethylcyclohex-1-en-1-yl]methyl}piperazin-1-yl)-2-(1H-indol-5-yloxy)-N-[(3-nitro-4-{[(2R)-tetrahydrofuran-2-ylmethyl]amino}phenyl)sulfonyl]benzamide], above 729.9; that for `CN1CCC(Nc2ccc(S(=O)(=O)NC(=O)c3ccc(N4CCN(CC5=C(c6ccc(Cl)cc6)CCC(O)C5)CC4)cc3Oc3ccc4[nH]ccc4c3)cc2[N+](=O)[O-])CC1` (stereo not shown) [EXAMPLE 224, 4-(4-{[2-(4-chlorophenyl)-5-hydroxycyclohex-1-en-1-yl]methyl}piperazin-1-yl)-2-(1H-indol-5-yloxy)-N-({4-[(1-methylpiperidin-4-yl)amino]-3-nitrophenyl}sulfonyl)benzamide], above 99.9.
The result for `CC1(C)CCC(CN2CCN(c3ccc(C(=O)NS(=O)(=O)c4ccc(NCCN5CCCC5=O)c([N+](=O)[O-])c4)c(Oc4ccc5[nH]ccc5c4)c3)CC2)=C(c2ccc(Cl)cc2)C1` [EXAMPLE 251, 4-(4-{[2-(4-chlorophenyl)-4,4-dimethylcyclohex-1-en-1-yl]methyl}piperazin-1-yl)-2-(1H-indol-5-yloxy)-N-[(3-nitro-4-{[2-(2-oxopyrrolidin-1-yl)ethyl]amino}phenyl)sulfonyl]benzamide] reads 1438.5.
The result for `CN(C)CCCN(C)c1ccc(S(=O)(=O)NC(=O)c2ccc(N3CCN(Cc4ccccc4-c4ccc(Cl)cc4)CC3)cc2Oc2ccccc2)cc1[N+](=O)[O-]` [Example 87, 4-{4-[(4′-chloro-1,1′-biphenyl-2-yl)methyl]piperazin-1-yl}-N-({4-[[3-(dimethylamino)propyl](methyl)amino]-3-nitrophenyl}sulfonyl)-2-phenoxybenzamide] reads 533.8; that for `CN(C)CCCNc1ccc(S(=O)(=O)NC(=O)c2ccc(N3CCN(Cc4ccccc4-c4ccc(Cl)cc4)CC3)cc2Oc2ccc3[nH]ccc3c2)cc1S(=O)(=O)C(F)(F)F` [Example 64, 4-{4-[(4′-chloro-1,1′-biphenyl-2-yl)methyl]piperazin-1-yl}-N-({4-{[3-(dimethylamino)propyl]amino}-3-[(trifluoromethyl)sulfonyl]phenyl}sulfonyl)-2-(1H-indol-5-yloxy)benzamide], 77.1; that for `CC1(C)CCC(CN2CCN(c3ccc(C(=O)NS(=O)(=O)c4ccc(Nc5ccc(O)cc5)c([N+](=O)[O-])c4)c(Oc4ccc5[nH]ccc5c4)c3)CC2)=C(c2ccc(Cl)cc2)C1` [EXAMPLE 375, 4-(4-{[2-(4-chlorophenyl)-4,4-dimethylcyclohex-1-en-1-yl]methyl}piperazin-1-yl)-N-({4-[(4-hydroxyphenyl)amino]-3-nitrophenyl}sulfonyl)-2-(1H-indol-5-yloxy)benzamide], above 58.6.

The record behind these values is patent US9125913B2, “Bcl-2-selective apoptosis-inducing agents for the treatment of cancer and immune diseases” (AbbVie Inc., priority 2008, dated 2015).
